Results from patent US11629146B2, “Substituted [1,2,4]triazolo[4,3-a]pyrazines as modulators of sodium channel activity” (Praxis Precision Medicines, Inc., priority 2016, dated 2023).

Target: human NaV1.6 (hNaV1.6) (Homo sapiens (Human), UniProt Q9UQD0)
Assay: INaL inhibition at hNaV1.6, PatchXpress electrophysiology
Type: cell-based
Settings: 1 μM; HEK-293 cells expressing hNaV1.6; late current evoked by 300 nM ATX-II
Method: Functional characterization of exemplary compounds to modulate INaL expressed by the Nay 1.6 voltage-gated sodium channel was accomplished using the PatchXpress™ high throughput electrophysiology platform (Molecular Devices, Sunnyvale, Calif.). HEK-293 cells expressing recombinant, human NaV1.6 (hNaV1.6) were grown in DMEM/high-glucose Dulbecco's modified, 10% FBS, 2 mM sodium pyruvate, 10 mM HEPES and 400 μg/mL G418. Cells were grown to 50%-80% confluency prior to harvesting. […] The onboard liquid handling facility of the PatchXpress was used for dispensing cells and applying test compounds. Nay late currents were evoked by the application of 300 nM ATX-II. […] INaL amplitude and stability were determined by analyzing the mean current amplitude over the final 20 ms of the test pulse. […] Percent steady-state inhibition of INaL was calculated as: [(INaL_compound)/(INaL_control)]*100, where INaL_compound and INaL_control represent INaL recorded in the presence or absence of compound, respectively.

human NaV1.6 (hNaV1.6), sequence (Q9UQD0 whole entry): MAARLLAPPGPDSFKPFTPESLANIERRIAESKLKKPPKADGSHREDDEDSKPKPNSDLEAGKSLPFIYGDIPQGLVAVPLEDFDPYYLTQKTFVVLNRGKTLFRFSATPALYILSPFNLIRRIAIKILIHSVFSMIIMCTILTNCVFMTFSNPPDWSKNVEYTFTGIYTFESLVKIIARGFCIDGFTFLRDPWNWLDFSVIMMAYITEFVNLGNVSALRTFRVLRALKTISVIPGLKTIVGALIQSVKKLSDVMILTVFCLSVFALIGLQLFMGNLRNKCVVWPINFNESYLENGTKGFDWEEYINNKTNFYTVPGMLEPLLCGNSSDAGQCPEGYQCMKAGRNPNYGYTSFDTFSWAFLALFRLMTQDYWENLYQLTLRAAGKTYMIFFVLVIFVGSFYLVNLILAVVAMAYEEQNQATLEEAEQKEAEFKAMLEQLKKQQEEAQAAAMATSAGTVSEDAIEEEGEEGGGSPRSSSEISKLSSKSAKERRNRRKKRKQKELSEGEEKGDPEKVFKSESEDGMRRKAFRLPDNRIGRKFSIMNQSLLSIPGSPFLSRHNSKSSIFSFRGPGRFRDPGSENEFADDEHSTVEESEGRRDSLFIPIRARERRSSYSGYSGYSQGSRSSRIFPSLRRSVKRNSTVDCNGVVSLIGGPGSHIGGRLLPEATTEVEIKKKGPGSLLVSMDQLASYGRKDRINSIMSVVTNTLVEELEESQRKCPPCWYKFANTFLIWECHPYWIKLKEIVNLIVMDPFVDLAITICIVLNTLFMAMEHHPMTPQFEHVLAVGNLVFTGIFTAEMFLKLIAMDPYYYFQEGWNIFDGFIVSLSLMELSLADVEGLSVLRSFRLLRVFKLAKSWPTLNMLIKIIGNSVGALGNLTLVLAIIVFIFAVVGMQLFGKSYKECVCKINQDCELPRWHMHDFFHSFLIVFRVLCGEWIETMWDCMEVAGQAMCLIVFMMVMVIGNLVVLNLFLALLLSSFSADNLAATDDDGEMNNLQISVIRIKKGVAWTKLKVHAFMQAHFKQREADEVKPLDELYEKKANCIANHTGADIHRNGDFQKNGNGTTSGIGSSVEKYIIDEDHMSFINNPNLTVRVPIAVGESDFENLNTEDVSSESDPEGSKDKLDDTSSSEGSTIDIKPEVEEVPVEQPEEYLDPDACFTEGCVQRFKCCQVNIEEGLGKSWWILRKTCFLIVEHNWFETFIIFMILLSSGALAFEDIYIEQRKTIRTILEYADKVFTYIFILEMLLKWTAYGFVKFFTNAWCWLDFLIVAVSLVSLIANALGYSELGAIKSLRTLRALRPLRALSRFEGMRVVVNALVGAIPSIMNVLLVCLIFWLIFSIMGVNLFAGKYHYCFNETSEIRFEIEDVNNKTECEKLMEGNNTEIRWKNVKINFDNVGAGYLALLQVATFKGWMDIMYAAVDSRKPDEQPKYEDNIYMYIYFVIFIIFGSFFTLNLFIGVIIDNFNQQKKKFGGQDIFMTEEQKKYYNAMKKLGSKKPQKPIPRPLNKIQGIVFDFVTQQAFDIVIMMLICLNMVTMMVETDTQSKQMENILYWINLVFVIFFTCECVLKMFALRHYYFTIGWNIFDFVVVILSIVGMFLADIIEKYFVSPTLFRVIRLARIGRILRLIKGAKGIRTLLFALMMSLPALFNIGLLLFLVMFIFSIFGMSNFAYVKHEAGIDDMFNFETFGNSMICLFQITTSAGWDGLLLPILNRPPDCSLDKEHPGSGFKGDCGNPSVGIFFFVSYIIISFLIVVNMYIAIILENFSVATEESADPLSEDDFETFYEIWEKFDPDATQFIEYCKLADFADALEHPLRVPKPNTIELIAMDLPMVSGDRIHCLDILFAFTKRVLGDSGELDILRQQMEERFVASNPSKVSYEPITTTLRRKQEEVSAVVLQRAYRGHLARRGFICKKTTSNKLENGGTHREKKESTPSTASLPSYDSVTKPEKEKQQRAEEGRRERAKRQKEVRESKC

| SMILES | INaL v1.6 (1 μM, % Inhibition) |
| --- | --- |
| C[C@@H](Oc1ncc(-c2cn3c(C(F)F)nnc3cn2)cc1F)C(F)(F)F [Compound 134] | C (inhibition of greater than 70%) |

Same assay, conditions: HEK293, read-out: INaL v1.6 (1 μM, % Inhibition)

| SMILES | inhibition at 1 µM [%] |
| --- | --- |
| FC(F)(F)c1nnc2ccc(-c3ccc(C4CC4(F)F)cc3)nn12 (centres unmarked) [Compound 120, 6-[4-(2,2-difluorocyclopropyl)phenyl]-3-(trifluoromethyl)-[1,2,4]triazolo[4,3-b]pyridazine] | > 70 |
| FC(F)(F)c1nnc2ccc(-c3ccc([C@H]4CC4(F)F)cc3)nn12 [Compound 121, 6-[4-[(1R)-2,2-difluorocyclopropyl]phenyl]-3-(trifluoromethyl)-[1,2,4]triazolo[4,3-b]pyridazine] | > 70 |
| FC(F)(F)Oc1ccc(-c2cn3c(C4CCOCC4)nnc3cn2)cc1 [Compound 145] | < 30 |

Same assay, conditions: HEK293; 1 μM; HEK-293 cells expressing hNaV1.6; late current evoked by 300 nM ATX-II; read-out: INaL v1.6 (1 μM, % Inhibition)

| SMILES | inhibition at 1 µM [%] |
| --- | --- |
| CC(Oc1ncc(-c2ccc3nnc(C(F)(F)F)n3n2)cc1F)C(F)(F)F (centres unmarked) [Compound 128] | > 70 |
| FC(F)(F)Oc1ccc(-c2cn3c(C[C@H]4CCCCO4)nnc3cn2)cc1 [Compound 129, 3-[[(2R)-tetrahydropyran-2-yl]methyl]-6-[4-(trifluoromethoxy)phenyl]-[1,2,4]triazolo[4,3-a]pyrazine] | < 30 |
| FC(F)(F)Oc1ccc(-c2cn3c(C[C@@H]4CCCCO4)nnc3cn2)cc1 [Compound 130, 3-[[(2S)-tetrahydropyran-2-yl]methyl]-6-[4-(trifluoromethoxy)phenyl]-[1,2,4]triazolo[4,3-a]pyrazine] | 30 to 70 |
| CC(Oc1ncc(-c2cn3c(C(F)(F)F)nnc3cn2)cc1F)C(F)(F)F (centres unmarked) [Compound 133] | > 70 |
| COCc1cc(OC(F)(F)F)ccc1-c1ccc2nnc(C(F)F)n2n1 [Compound 137] | 30 to 70 |
| FC(F)Oc1ccc(-c2cn3c(C(F)F)nnc3cn2)cc1 [Compound 138] | < 30 |
| Cc1cc(-c2ccc(OC(F)(F)F)cc2)nn2c(C(F)(F)F)nnc12 [Compound 139, 8-methyl-6-[4-(trifluoromethoxy)phenyl]-3-(trifluoromethyl)-[1,2,4]triazolo[4,3-b]pyridazine] | < 30 |
| Cc1cc2nnc(C(F)(F)F)n2nc1-c1ccc(OC(F)(F)F)cc1 [Compound 140, 7-methyl-6-[4-(trifluoromethoxy)phenyl]-3-(trifluoromethyl)-[1,2,4]triazolo[4,3-b]pyridazine] | 30 to 70 |
| COCc1cc(C(F)(F)F)ccc1-c1cn2c(C(F)F)nnc2cn1 [Compound 141] | 30 to 70 |
| COCc1cc(OC(F)(F)F)ccc1-c1cn2c(C(F)F)nnc2cn1 [Compound 142] | > 70 |
| COCc1cc2nnc(C(F)(F)F)n2nc1-c1ccc(OC(F)(F)F)cc1 [Compound 143] | < 30 |
| COCc1cc(-c2cn3c(C(F)F)nnc3cn2)ccc1OC(F)(F)F [Compound 144] | < 30 |
| COCc1cc(-c2ccc3nnc(C(F)F)n3n2)ccc1OC(F)(F)F [Compound 146] | 30 to 70 |
| COc1nnc2cnc(-c3ccc(OC(F)(F)F)cc3)cn12 [Compound 148] | < 30 |
| FC(F)(F)OCc1ccc(-c2cn3c(C(F)(F)F)nnc3cn2)cc1 [Compound 149] | > 70 |
| FC(F)(F)COc1nnc2cnc(-c3ccc(OC(F)(F)F)cc3)cn12 [Compound 150] | < 30 |
| FC(F)(F)c1nnc2cnc(-c3ccc([C@H]4CC4(F)F)cc3)cn12 [Compound 151, 6-[4-[(1R)-2,2-difluorocyclopropyl]phenyl]-3-(trifluoromethyl)-[1,2,4]triazolo[4,3-a]pyrazine] | 30 to 70 |
| FC(F)(F)c1nnc2cnc(-c3ccc([C@@H]4CC4(F)F)cc3)cn12 [Compound 152, 6-[4-[(1S)-2,2-difluorocyclopropyl]phenyl]-3-(trifluoromethyl)-[1,2,4]triazolo[4,3-a]pyrazine] | > 70 |
| COCc1cc(-c2cn3c(C(F)(F)F)nnc3cn2)ccc1C(F)(F)F [Compound 157] | 30 to 70 |
| COCc1cc(-c2ccc3nnc(C(F)(F)F)n3n2)ccc1C(F)(F)F [Compound 158] | 30 to 70 |
| COCc1cc(-c2ccc3nnc(C(F)F)n3n2)ccc1C(F)(F)F [Compound 159] | 30 to 70 |
| FC(F)(F)Oc1ccc(-c2cn3c([C@H]4CCOC4)nnc3cn2)cc1 [Compound 160, 3-[(3R)-tetrahydrofuran-3-yl]-6-[4-(trifluoromethoxy)phenyl]-[1,2,4]triazolo[4,3-a]pyrazine] | < 30 |
| FC(F)(F)Oc1ccc(-c2cn3c([C@@H]4CCOC4)nnc3cn2)cc1 [Compound 161, 3-[(3S)-tetrahydrofuran-3-yl]-6-[4-(trifluoromethoxy)phenyl]-[1,2,4]triazolo[4,3-a]pyrazine] | < 30 |
| FC(F)(F)Oc1ccc(-c2nn3c(C(F)(F)F)nnc3cc2Cl)cc1 [Compound 162, 7-chloro-6-[4-(trifluoromethoxy)phenyl]-3-(trifluoromethyl)-[1,2,4]triazolo[4,3-b]pyridazine] | > 70 |
| COCc1cc(-c2ccc(OC(F)(F)F)cc2)nn2c(C(F)(F)F)nnc12 [Compound 163] | < 30 |

| SMILES | inhibition at 1 µM [%] |
| --- | --- |
| FC(F)c1nnc2ccc(-c3ccc([C@H]4CC4(F)F)cc3)nn12 [Compound 164, 6-[4-[(1R)-2,2-difluorocyclopropyl]phenyl]-3-(difluoromethyl)-[1,2,4]triazolo[4,3-b]pyridazine] | 30 to 70 |
| FC(F)c1nnc2ccc(-c3ccc([C@@H]4CC4(F)F)cc3)nn12 [Compound 165, 6-[4-[(1S)-2,2-difluorocyclopropyl]phenyl]-3-(difluoromethyl)-[1,2,4]triazolo[4,3-b]pyridazine] | > 70 |
| FC(F)c1nnc2cnc(-c3ccc([C@H]4CC4(F)F)cc3)cn12 [Compound 166, 6-[4-[(1R)-2,2-difluorocyclopropyl]phenyl]-3-(difluoromethyl)-[1,2,4]triazolo[4,3-a]pyrazine] | 30 to 70 |
| FC(F)c1nnc2cnc(-c3ccc([C@@H]4CC4(F)F)cc3)cn12 [Compound 167, 6-[4-[(1S)-2,2-difluorocyclopropyl]phenyl]-3-(difluoromethyl)-[1,2,4]triazolo[4,3-a]pyrazine] | 30 to 70 |
| Cc1nc(-c2ccc(OC(F)(F)F)cc2)cn2c(C(F)(F)F)nnc12 [Compound 168, 8-methyl-6-[4-(trifluoromethoxy)phenyl]-3-(trifluoromethyl)-[1.2.4]triazolo[4,3-a]pyrazine] | 30 to 70 |
| OCc1ccc(-c2ccc3nnc(C(F)F)n3n2)cc1 [Compound 169, [4-[3-(difluoromethyl)-[1,2,4]triazolo[4,3-b]pyridazin-6-yl]phenyl]methanol] | < 30 |
| COCc1ccc(-c2cn3c(C(F)F)nnc3cn2)cc1 [Compound 170] | < 30 |
| COCc1ccc(-c2ccc3nnc(C(F)F)n3n2)cc1 [Compound 171] | < 30 |
| OCc1ccc(-c2cn3c(C(F)F)nnc3cn2)cc1 [Compound 172, [4-[3-(difluoromethyl)-[1,2,4]triazolo[4,3-a]pyrazin-6-yl]phenyl]methanol] | < 30 |
| COCc1cc(-c2cn3c(C(F)(F)F)nnc3cn2)ccc1OC(F)(F)F [Compound 173] | 30 to 70 |
| Cc1cc(OC2CC(F)(F)C2)ccc1-c1cn2c(C(F)(F)F)nnc2cn1 [Compound 174] | 30 to 70 |
| Fc1ccc(-c2nnc3cnc(-c4cnc(OCC(F)(F)F)c(F)c4)cn23)cc1 [Compound 175] | > 70 |
| Nc1cc(-c2ccc(OC(F)(F)F)cc2)nn2c(C(F)(F)F)nnc12 [Compound 176, 6-[4-(trifluoromethoxy)phenyl]-3-(trifluoromethyl)-[1,2,4]triazolo[4,3-b]pyridazin-8-amine] | < 30 |
| CC(=O)Nc1cc(-c2ccc(OC(F)(F)F)cc2)nn2c(C(F)(F)F)nnc12 [Compound 177] | < 30 |
| FC(F)c1nnc2cnc(-c3ccc(OC4CC(F)(F)C4)cc3)cn12 [Compound 178] | 30 to 70 |
| FC(F)(F)COc1ccc(-c2cn3c(C(F)(F)F)nnc3cn2)cn1 [Compound 179] | 30 to 70 |
| COCc1ccc(-c2cn3c(C(F)(F)F)nnc3cn2)cc1 [Compound 180] | < 30 |
| O=C(O)c1cc(-c2ccc(OC(F)(F)F)cc2)nn2c(C(F)(F)F)nnc12 [Compound 181, 6-[4-(trifluoromethoxy)phenyl]-3-(trifluoromethyl)-[1,2,4]triazolo[4,3-b]pyridazine-8-carboxylic acid] | < 30 |
| NC(=O)c1cc(-c2ccc(OC(F)(F)F)cc2)nn2c(C(F)(F)F)nnc12 [Compound 183] | < 30 |
| O=C(O)c1cc2nnc(C(F)(F)F)n2nc1-c1ccc(OC(F)(F)F)cc1 [Compound 184, 6-[4-(trifluoromethoxy)phenyl]-3-(trifluoromethyl)-[1,2,4]triazolo[4,3-b]pyridazine-7-carboxylic acid] | < 30 |
| OCc1cc(-c2ccc(OC(F)(F)F)cc2)nn2c(C(F)(F)F)nnc12 [Compound 186] | < 30 |
| Fc1cc2nnc(C(F)(F)F)n2nc1-c1ccc(OC(F)(F)F)cc1 [Compound 187] | > 70 |
| Fc1ccc(Oc2nnc3cnc(-c4cnc(OCC(F)(F)F)c(F)c4)cn23)cc1 [Compound 188] | 30 to 70 |
| FC(F)(F)Oc1ccc(-c2cc(Cl)c3nnc(C(F)(F)F)n3n2)cc1 [Compound 189] | < 30 |
